Measurements from publication PMC10471714, “G6PDi-1 is a Potent Inhibitor of G6PDH and of Pentose Phosphate pathway-dependent Metabolic Processes in Cultured Primary Astrocytes” (Neurochemical Research, 2023).

Key:
[1] = target: T1, G6PDH (glucose-6-phosphate dehydrogenase) (Rattus norvegicus, UniProt P05370); assay: NADPH absorbance at […] nm in astrocyte lysate; type: biochemical; conditions: 3.3 mM G6P, 0.2 mM NADP+, 6.3 mM MgCl2, 5 mM maleimide, pH 7.5, room temperature; read-out: half-maximal inhibition
T1 construct: gene G6pdx; native cytosolic enzyme in soluble lysate supernatant of primary astrocyte-rich cultures; not purified

[2] = target: T2, 6PGDH (6-phosphogluconate dehydrogenase) (Rattus norvegicus, UniProt P85968); assay: NADPH absorbance at […] nm in astrocyte lysate; type: biochemical
T2 construct: gene Pgd; native cytosolic enzyme in soluble lysate supernatant of primary astrocyte-rich cultures; not purified
T2 sequence (P85968 2-483): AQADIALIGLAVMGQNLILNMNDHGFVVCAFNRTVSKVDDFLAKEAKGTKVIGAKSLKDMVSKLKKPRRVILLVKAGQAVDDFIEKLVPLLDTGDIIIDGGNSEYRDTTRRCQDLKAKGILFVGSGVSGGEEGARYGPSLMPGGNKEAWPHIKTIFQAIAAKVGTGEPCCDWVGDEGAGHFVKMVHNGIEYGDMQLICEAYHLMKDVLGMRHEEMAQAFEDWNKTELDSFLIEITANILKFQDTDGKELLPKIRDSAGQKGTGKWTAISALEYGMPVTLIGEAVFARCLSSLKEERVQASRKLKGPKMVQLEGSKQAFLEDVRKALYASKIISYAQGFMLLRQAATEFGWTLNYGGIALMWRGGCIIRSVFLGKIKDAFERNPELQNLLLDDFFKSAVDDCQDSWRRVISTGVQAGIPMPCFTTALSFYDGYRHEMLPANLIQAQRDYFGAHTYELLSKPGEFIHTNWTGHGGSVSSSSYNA

T1 sequence (P05370 2-515): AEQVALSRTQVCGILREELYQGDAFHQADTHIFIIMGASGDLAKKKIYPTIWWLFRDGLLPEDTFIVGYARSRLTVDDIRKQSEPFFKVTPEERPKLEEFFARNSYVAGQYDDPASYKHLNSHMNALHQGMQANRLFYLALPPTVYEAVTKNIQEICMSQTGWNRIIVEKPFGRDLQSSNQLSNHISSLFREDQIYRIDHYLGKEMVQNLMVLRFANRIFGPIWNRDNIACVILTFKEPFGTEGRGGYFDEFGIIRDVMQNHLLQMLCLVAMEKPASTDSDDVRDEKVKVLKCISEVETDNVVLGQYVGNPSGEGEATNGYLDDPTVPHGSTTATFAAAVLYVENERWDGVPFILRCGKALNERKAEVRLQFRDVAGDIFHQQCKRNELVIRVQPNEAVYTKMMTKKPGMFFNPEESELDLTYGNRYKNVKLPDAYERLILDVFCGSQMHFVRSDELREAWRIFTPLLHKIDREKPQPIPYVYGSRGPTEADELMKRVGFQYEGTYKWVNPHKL

Row | IC50 [1] [µM] | inhibition at 100 µM [2] [%] | SMILES
1 | 9.2 ± 3.5 |  | C[C@]12CC[C@H](O)CC1=CC[C@@H]1[C@@H]2CC[C@]2(C)C(=O)CC[C@@H]12 [DHEA]
2 |  | 15 | N#Cc1cc(Nc2ncc3c(n2)CCCCC3=O)cs1 [G6PDi-1]
